Each block holds one compound with its values, some of them ahead of it.
Columns and labels:
[1] = tested on: chronic Type I (BBWor) diabetic rats; experiment: Blood glucose in chronic Type I (BBWor) diabetic rats; format: in vivo, rat; details: for blood glucose after treatment: 6 hours; for blood glucose before treatment: time 0; for decrease in blood glucose levels: within 6 hours of a single treatment (luteolin 3 mg intragastrically; PZI insulin subcutaneous)
Method: The effect of Luteolin treatment in chronic Type I (BBWor) diabetic rats was examined. In this study, lean male diabetic rats were randomly assigned to 3 treatment groups (3-4 rats/group). Each group received either: (1) 3 mg dose of luteolin intragastrically; (2) a subcutaneous injection of PZI insulin (0.9-1.2 mU/day); or (3) no treatment. Blood glucose was evaluated from time 0 through 6 hours. The data was expressed as average blood glucose relative to time post treatment.

[2] = tested on: cytotoxic T lymphocyte line CTL264; experiment: CTL cytotoxicity against 264 peptide-pulsed T2 target cells (calcein release); format: cell-based; details: for inhibition of calcein release: FIG. 3
Method: A cytotoxic T lymphocyte line (CTL—designated CTL264) specific for a peptide antigen (aa 264-272, referred to as the 264 peptide) derived from the tumor suppressor protein p53 was used as a […] to test if luteolin had any effect on CTL cytotoxicity against 264 peptide-pulsed T2 target cells. T2 target cells were pulsed with 264 peptide for 2 hours and labeled with Calcein-AM for 30 minutes and washed three times. Mixtures of T2 cells and CTL264 were incubated for 4 hours. 100 μL supernatants were transferred to a 96-well flat-bottom microtiter plates to read fluorescence (538 nm) to measure calcein release due to cell lysis.
The spontaneous calcein release in cytotoxic T Lymphocytes was determined by incubation of targets in RPMI-10. The maximal calcein release was determined by incubation of targets in Triton X-100. Data are reported as the mean of triplicate determinations.

[3] = cited from earlier work
Kv1.3 channel = Kv1.3 channel (Homo sapiens, UniProt P22001); experiment: Inhibition of the Kv1.3 channel, patch clamp method; format: cell-based
Excerpt: Furthermore, the invention deals with ion channels that constitute a set of molecular targets through which these 3-deoxyflavonoids exert their biological effects. The flavonoid compounds of this invention can lower and stabilize blood glucose levels in Type-I and Type-II diabetics, and can also ameliorate symptoms of lupus erythematosus, an autoimmune disease affecting several organs. Type-I diabetes is an autoimmune disease in which autoreactive lymphocytes destroy pancreatic P-cells, while the etiology of Type-II diabetes is due to inadequate insulin production and decreased ability of insulin to affect its target end-organs. Since ion channels play a critical role in lymphocytes and in pancreatic β-cell signaling, it is most likely that at least some of the therapeutic effects of flavonoids may arise through blockade of ion channels. […] The non-toxic nature of these flavonoids in humans makes them attractive as nutraceuticals that could complement or replace existing medications and therapies. Inhibition of the Kv1.3 channel was performed utilizing the patch clamp method desctribed by […]. Biol. Chem. 276: 12249.

[4] = tested on: obese Type II (BBZDR) diabetic rats; experiment: Blood glucose in Type II BBZDR rats, two weeks of treatment; format: in vivo, rat
Method: In this example, the dose of luteolin was standardized to 50 mg three times per day in the same group of Type II BBZDR rats from Example 5 over an extended period of treatment of two weeks. […] The data was expressed for each rat as a percentage change in blood glucose level relative to each individual pre-treatment level.

[5] = tested on: chronic Type 2 diabetic rats; experiment: Blood glucose in chronic Type 2 diabetic rats, 24 hr dose study; format: in vivo, rat
Method: Luteolin was also evaluated for its effect to reduce hyperglycemia in chronic Type 2 diabetic rats. In this study, the dose and frequency of Luteolin treatment was increased to compensate for the enhanced metabolism of the obese rat. First, a 24 hour baseline study was performed on 9 chronic Type 2 rats. […] These same rats were randomly assigned to 3 groups and given 50, 150 and 250 mg doses of Luteolin at three times during the 24 hr period (11 AM, 2 PM and 8 PM). Blood glucose analysis was evaluated every 2 hours.

[6] = fried onions, equivalent to 64 mg quercetin aglycone
[7] = 50 mg three times per day for two weeks

Sequence of Kv1.3 channel (P22001 whole entry): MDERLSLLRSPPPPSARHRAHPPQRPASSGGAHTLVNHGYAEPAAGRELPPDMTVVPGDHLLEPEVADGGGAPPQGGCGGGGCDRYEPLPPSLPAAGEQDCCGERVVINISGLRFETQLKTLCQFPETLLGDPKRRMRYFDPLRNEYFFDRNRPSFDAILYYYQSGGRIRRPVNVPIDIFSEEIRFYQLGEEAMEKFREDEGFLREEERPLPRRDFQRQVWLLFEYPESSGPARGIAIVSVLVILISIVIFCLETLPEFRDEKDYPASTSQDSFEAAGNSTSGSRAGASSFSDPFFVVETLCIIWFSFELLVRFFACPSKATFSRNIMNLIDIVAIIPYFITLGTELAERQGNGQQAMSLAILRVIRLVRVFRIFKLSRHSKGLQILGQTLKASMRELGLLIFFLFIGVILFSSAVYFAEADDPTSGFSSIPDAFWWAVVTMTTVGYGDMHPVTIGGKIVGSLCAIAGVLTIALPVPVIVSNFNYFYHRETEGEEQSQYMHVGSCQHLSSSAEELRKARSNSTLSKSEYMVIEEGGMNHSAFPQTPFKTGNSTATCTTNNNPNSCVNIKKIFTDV

Compound: insulin [reference compound]
blood glucose after treatment [1]: 112 mg/dL | blood glucose before treatment [1]: 415 mg/dL | decrease in blood glucose levels [1]: 75%

Compound: O=c1cc(-c2cc(O)c(O)c(O)c2)oc2cc(O)cc(O)c12 [tricetin]
inhibition of calcein release [2]: inhibition of calcein release

Compound: O=c1c(O)c(-c2ccc(O)c(O)c2)oc2cc(O)cc(O)c12 [quercetin]
distribution phase half-life [3, 6]: 3.8 h | elimination phase half-life [3, 6]: 16.8 h | time of peak plasma levels [3, 6]: 2.9 h | human absorption ([3]; oral): 24%

block of Kv1.3 channel current vs. control (Kv1.3 channel; 20 uM concentration): approximately 25% | block of Kv1.3 channel current vs. control (Kv1.3 channel; 100 uM concentration): 100%
Compound: O=c1cc(-c2ccc(O)c(O)c2)oc2cc(O)cc(O)c12 [luteolin, 3′,4′,5,7-tetrahydroxyflavone]
inhibition of CTL cytotoxicity against 264-pulsed T2 target cells ([2]; 4 hours incubation, FIG. 2): significantly inhibited | inhibition of calcein release [2]: inhibition of calcein release | average blood glucose after treatment [4, 7]: 389 mg/dL | average drop in blood glucose levels [4, 7]: 41.1% | average blood glucose pre-treatment ([4]; before treatment): 660 mg/dL | increase in blood glucose, rat #3 ([4]; rat #3 with esophagial fistula, two weeks): 9.3% | decrease in blood glucose levels ([5]; 50 mg three times a day (150 mg total), within 24 hr): 10.2% | drop in blood glucose ([5]; 150 mg three times (450 mg total), 24 hr): 22.9% | decrease in glucose ([5]; 250 mg three times (750 mg total), 24 hr): 27.7% | blood glucose after treatment, one rat ([5]; intermediate dose, one rat, 18 hr): 372 mg/dL | blood glucose before treatment, one rat ([5]; intermediate dose, one rat, start): 777 mg/dL | reduction of blood glucose, one rat ([5]; intermediate dose, one rat, within 18 hr): 52% | reduction of hyperglycemia over all doses ([5]; over a 24 hour period, 50-250 mg doses): 10-28% | blood glucose after treatment [1]: 307 mg/dL | blood glucose before treatment [1]: 445 mg/dL | decrease in blood glucose levels [1]: 31%
